Values after ≈ are worked out from the molar mass of the structure shown.
Assays:
[1] = Selectivity index, ratio of GI50 for human A549 cells to MIC for dormant state Mycobacterium bovis BCG ATCC 35734; format: toxicity, cell-based; conditions: read-out: Selectivity Index
[2] = Selectivity index, ratio of GI50 for human PANC1 cells to MIC for active state Mycobacterium bovis BCG ATCC 35734; format: toxicity, cell-based, PANC-1; conditions: read-out: Selectivity Index
[3] = Selectivity index, ratio of GI50 for human PANC1 cells to MIC for dormant state Mycobacterium bovis BCG ATCC 35734; format: toxicity, cell-based, PANC-1; conditions: read-out: Selectivity Index
Escherichia coli = assay: Antibacterial activity against Escherichia coli NCIM 2688 after 8 hrs; format: functional, organism-based; conditions: NCIM 2688, 8 h
Pseudomonas fluorescens = assay: Antibacterial activity against Pseudomonas fluorescens NCIM 2036 after 8 hrs; format: functional, organism-based; conditions: NCIM 2036, 8 h
Staphylococcus aureus = assay: Antibacterial activity against Staphylococcus aureus NCIM 2010 after 12 hrs; format: functional, organism-based; conditions: NCIM 2010, 12 h
Bacillus subtilis = assay: Antibacterial activity against Bacillus subtilis NCIM 2079 after 12 hrs; format: functional, organism-based; conditions: NCIM 2079, 12 h
[4] = system: Mycobacterium tuberculosis; assay: Antitubercular activity against active state Mycobacterium tuberculosis H37Ra assessed as viable cells after 8 days by XTT reduction menadione assay; format: functional, organism-based; conditions: 192 h
[5] = system: Mycobacterium tuberculosis; assay: Antitubercular activity against dormant state Mycobacterium tuberculosis H37Ra assessed as viable cells after 12 days by XTT reduction menadione assay; format: functional, organism-based; conditions: 288 h
[6] = (§1) Cytotoxicity against human HeLa cells after 72 hrs by MTT assay; format: cell-based; conditions: HeLa cells
HeLa = assay: as §1; format: cell-based; conditions: hela, 72 h
[7] = (§2) Cytotoxicity against human A549 cells after 48 hrs by MTT assay; format: cell-based; conditions: A549 cells
A549 = assay: as §2; format: cell-based; conditions: a549, 48 h
[8] = Cytotoxicity against human PANC1 cells after 48 hrs by MTT assay; format: cell-based, PANC-1; conditions: for GI50 at 48 h: PANC1 cells; for GI90: panc-1, 48 h
[9] = Selectivity index, ratio of GI50 for human HeLa cells to MIC for active state Mycobacterium bovis BCG ATCC 35734; format: toxicity, cell-based; conditions: read-out: Selectivity Index
[10] = Selectivity index, ratio of GI50 for human HeLa cells to MIC for dormant state Mycobacterium bovis BCG ATCC 35734; format: toxicity, cell-based; conditions: read-out: Selectivity Index
[11] = Selectivity index, ratio of GI50 for human A549 cells to MIC for active state Mycobacterium bovis BCG ATCC 35734; format: toxicity, cell-based; conditions: read-out: Selectivity Index

| Compound | selectivity ratio [1] | selectivity ratio [2] | selectivity ratio [3] | IC50 (Escherichia coli) | MIC (Escherichia coli) | IC50 (Pseudomonas fluorescens) | MIC (Pseudomonas fluorescens) | IC50 (Staphylococcus aureus) | MIC (Staphylococcus aureus) | IC50 (Bacillus subtilis) | MIC (Bacillus subtilis) | IC50 [4] | MIC [4] | IC50 [5] | MIC [5] | GI50 at 72 h [6] | GI90 (HeLa) | selectivity ratio [9] | selectivity ratio [10] | selectivity ratio [11] | also measured |
| --- | --- | --- | --- | --- | --- | --- | --- | --- | --- | --- | --- | --- | --- | --- | --- | --- | --- | --- | --- | --- | --- |
| O=C(/C=C\c1ccccc1O)N1N=C(c2ccncc2)OC1c1c[nH]c2ccccc12 (centres undefined) | > 25.2 | > 31.9 | > 25.2 | 21.7 µg/mL (≈ 52.9 µM) | > 256 µg/mL | 22.5 µg/mL (≈ 54.9 µM) | 192 µg/mL (≈ 469 µM) | 23.3 µg/mL (≈ 56.8 µM) | > 256 µg/mL | 22.1 µg/mL (≈ 53.9 µM) | > 256 µg/mL | > 30 µg/mL | > 30 µg/mL | > 30 µg/mL | > 30 µg/mL | 26.8 µg/mL (≈ 65.3 µM) | > 30 µg/mL | 28.5 | 22.5 | > 31.9 | GI50 at 48 h [7]: > 30 µg/mL; GI90 (A549): > 30 µg/mL; GI50 at 48 h [8]: > 30 µg/mL; GI90 [8]: > 30 µg/mL |
| CO[C@H]1/C=C/O[C@@]2(C)Oc3c(C)c(O)c4c(O)c(c(/C=N/N5CCN(C)CC5)c(O)c4c3C2=O)NC(=O)/C(C)=C\C=C\[C@H](C)[C@H](O)[C@@H](C)[C@@H](O)[C@@H](C)[C@H](OC(C)=O)[C@@H]1C [RIFAMPIN] | > 2700 | > 2860 | > 2700 |  |  |  |  |  |  |  |  | 0.0016 µg/mL (≈ 0.00194 µM) | 0.041 µg/mL (≈ 0.0498 µM) | 0.0017 µg/mL (≈ 0.00207 µM) | 0.045 µg/mL (≈ 0.0547 µM) |  |  | > 2860 | > 2700 | > 2860 |  |
| NNC(=O)c1ccncc1 [ISONIAZID] | > 2560 | > 3030 | > 2560 |  |  |  |  |  |  |  |  | 0.0013 µg/mL (≈ 0.00948 µM) | 0.031 µg/mL (≈ 0.226 µM) | 0.0014 µg/mL (≈ 0.0102 µM) | 0.034 µg/mL (≈ 0.248 µM) |  |  | > 3030 | > 2560 | > 3030 |  |
| O=C(/C=C\c1ccccc1[N+](=O)[O-])N1N=C(c2ccncc2)OC1c1c[nH]c2ccccc12 (centres undefined) | > 35.3 | > 29.1 | > 35.3 | 18.4 µg/mL (≈ 41.8 µM) | > 256 µg/mL | 19.2 µg/mL (≈ 43.7 µM) | > 256 µg/mL | 21.1 µg/mL (≈ 47.9 µM) | > 256 µg/mL | 24.2 µg/mL (≈ 55.2 µM) | > 256 µg/mL | > 30 µg/mL | > 30 µg/mL | > 30 µg/mL | > 30 µg/mL | > 30 µg/mL | > 30 µg/mL | > 29.1 | > 35.3 | > 29.1 | GI50 at 48 h [7]: > 30 µg/mL; GI90 (A549): > 30 µg/mL; GI50 at 48 h [8]: > 30 µg/mL; GI90 [8]: > 30 µg/mL |
| O=C(/C=C\c1ccc(Cl)cc1Cl)N1N=C(c2ccncc2)OC1c1c[nH]c2ccccc12 (centres undefined) | > 6.03 | > 5.8 | > 6.03 | > 256 µg/mL | > 256 µg/mL | > 256 µg/mL | > 256 µg/mL | > 256 µg/mL | > 256 µg/mL | > 256 µg/mL | > 256 µg/mL | 29.3 µg/mL (≈ 63.3 µM) | > 30 µg/mL | 27.5 µg/mL (≈ 59.4 µM) | > 30 µg/mL | 29.3 µg/mL (≈ 63.3 µM) | > 30 µg/mL | 5.68 | 5.9 | > 5.8 | GI50 at 48 h [7]: > 30 µg/mL; GI90 (A549): > 30 µg/mL; GI50 at 48 h [8]: > 30 µg/mL; GI90 [8]: > 30 µg/mL |
| O=C(/C=C\c1ccc([N+](=O)[O-])cc1)N1N=C(c2ccncc2)OC1c1c[nH]c2ccccc12 (centres undefined) | > 12.7 | > 12 | > 12.7 | 9.46 µg/mL (≈ 21.5 µM) | 28.2 µg/mL (≈ 64.3 µM) | 11.9 µg/mL (≈ 27 µM) | 29.1 µg/mL (≈ 66.1 µM) | 12.7 µg/mL (≈ 28.8 µM) | 30.6 µg/mL (≈ 69.7 µM) | 13.5 µg/mL (≈ 30.6 µM) | 31.4 µg/mL (≈ 71.6 µM) | > 30 µg/mL | > 30 µg/mL | > 30 µg/mL | > 30 µg/mL | > 30 µg/mL | > 30 µg/mL | > 12 | > 12.7 | > 12 | GI50 at 48 h [7]: > 30 µg/mL; GI90 (A549): > 30 µg/mL; GI50 at 48 h [8]: > 30 µg/mL; GI90 [8]: > 30 µg/mL |
| O=C(/C=C\c1ccc(Cl)cc1)N1N=C(c2ccncc2)OC1c1c[nH]c2ccccc12 (centres undefined) |  |  |  | > 256 µg/mL | > 256 µg/mL | > 256 µg/mL | > 256 µg/mL | > 256 µg/mL | > 256 µg/mL | > 256 µg/mL | > 256 µg/mL | > 30 µg/mL | > 30 µg/mL | > 30 µg/mL | > 30 µg/mL | > 30 µg/mL | > 30 µg/mL |  |  |  | GI50 at 48 h [7]: > 30 µg/mL; GI90 (A549): > 30 µg/mL; GI50 at 48 h [8]: > 30 µg/mL; GI90 [8]: > 30 µg/mL |
